Results: PubChem BioAssay (NCI)
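Five concentrations, 48 hours, 96-well plates. Here, GI50 denotes the concentration required for 50% inhibition of growth. Definition used: TGI = concentration required for complete inhibition of growth.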

Columns and labels:
Assay in all cases: NCI anticancer screen, dose series, 48 h
EKVX NSCLC = tested on: EKVX NSCLC
IGROV1 ovarian = tested on: IGROV1 ovarian
K-562 leukemia = tested on: K-562 leukemia
A549 NSCLC = tested on: A549 NSCLC
RXF 393 renal = tested on: RXF 393 renal
CCRF-CEM leukemia = tested on: CCRF-CEM leukemia
UACC-62 melanoma = tested on: UACC-62 melanoma
HT29 colon = tested on: HT29 colon
KM12 colon = tested on: KM12 colon
SK-MEL-2 melanoma = tested on: SK-MEL-2 melanoma

Compound | TGI (EKVX NSCLC) | TGI (IGROV1 ovarian) | TGI (K-562 leukemia) | TGI (A549 NSCLC) | TGI (RXF 393 renal) | TGI (CCRF-CEM leukemia) | TGI (UACC-62 melanoma) | TGI (HT29 colon) | TGI (KM12 colon) | TGI (SK-MEL-2 melanoma) | GI50 (EKVX NSCLC) | GI50 (IGROV1 ovarian) | GI50 (K-562 leukemia) | GI50 (RXF 393 renal) | GI50 (SK-MEL-2 melanoma) | GI50 (CCRF-CEM leukemia) | GI50 (UACC-62 melanoma) | GI50 (HT29 colon) | GI50 (KM12 colon) | GI50 (A549 NSCLC)
COc1ccc2cc3[n+](cc2c1OC)CCc1cc(O)c(O)cc1-3 | > 100 µM | > 100 µM | > 100 µM | > 100 µM | > 100 µM | > 100 µM | > 100 µM | > 100 µM | > 100 µM |  |  |  |  |  |  |  |  |  |  | 
COc1cc(C(=O)C/C(CCC(=O)Nc2ccc(Cl)cc2C)=N/NC(=O)C(N)=O)ccc1O | > 100 µM | > 100 µM | > 100 µM | > 100 µM |  | > 100 µM | > 100 µM | > 100 µM | > 100 µM | > 100 µM |  |  |  |  |  |  |  |  |  | 
NC(=N\N=C/c1cccc([N+](=O)[O-])c1)/C(N)=N\N=C/c1cccc([N+](=O)[O-])c1 | > 100 µM | > 100 µM | > 100 µM |  | > 100 µM | > 100 µM | > 100 µM | > 100 µM | > 100 µM | > 100 µM | > 100 µM | > 100 µM | > 100 µM | > 100 µM | > 100 µM | > 100 µM | > 100 µM | > 100 µM | > 100 µM | 
CCCCCCCCCCC(O)C1CCC(C(O)CCC(O)C2CCC(CCCCCCC[C@H](O)CC3=C[C@@H](C)OC3=O)O2)O1 (stereo partly drawn) | > 100 µM | > 100 µM | > 100 µM | > 100 µM | 33.9 µM |  | > 100 µM | > 100 µM | 68.1 µM | > 100 µM | 4.16 µM |  | 2.18 µM |  |  |  | 0.466 µM |  |  | 8.66 µM
Cc1cc(N2CCCC2)nc(NC2CCCC(Nc3ccnc4cc(Cl)ccc34)C2)n1 (stereo not drawn) | 5.02 µM | 3.2 µM |  |  | 2.71 µM | 3.37 µM | 3.57 µM |  | 3.89 µM | 3.27 µM | 1.86 µM | 0.967 µM |  | 1.33 µM | 1.7 µM | 0.408 µM | 1.92 µM |  | 1.5 µM | 
C[C@@H]1N=C(c2ccc(Br)cc2)Nc2nc3ccccn3c2C1=O |  | > 100 µM | > 100 µM | > 100 µM | 51.7 µM | > 100 µM | > 100 µM | > 100 µM | > 100 µM | > 100 µM |  | 51.9 µM | 4.13 µM | 10.2 µM | 15.7 µM | 6.56 µM | 4.35 µM | 3.73 µM | 3.39 µM | 6.7 µM
CN(C)CC/C(=N\Nc1ccccc1)c1ccccc1 | 41.2 µM | > 100 µM | 7.54 µM | > 100 µM | > 100 µM |  | > 100 µM | 10 µM | 18.3 µM | 27.2 µM |  |  |  |  |  |  |  |  |  | 
O=C1NC2CCC(C2)C1c1ccccc1 (stereo not drawn) | > 100 µM | > 100 µM | > 100 µM | > 100 µM | > 100 µM | > 100 µM | > 100 µM | > 100 µM | > 100 µM |  |  |  |  |  |  |  |  |  |  | 
O=C([CH-]C(=O)c1ccccc1)c1ccccc1.O=C([CH-]C(=O)c1ccccc1)c1ccccc1.O=C([CH-]C(=O)c1ccccc1)c1ccccc1.[OH3+].[Y+3] | 23.1 µM | 62.4 µM | 17.8 µM | 38.9 µM |  |  | 22.3 µM | 17.1 µM | 24 µM | 17.9 µM | 3.32 µM | 13.6 µM | 3.6 µM |  | 4.24 µM |  | 5.73 µM | 4.09 µM | 5.38 µM | 13.2 µM
CCCN1CCN(c2ccc3nc(-c4ccc5nc(-c6cc(OC)ccc6OC)[nH]c5c4)[nH]c3c2)CC1 | 3.35 µM | 30.3 µM |  | 3.64 µM | 3.17 µM | 4.49 µM | 34.7 µM | 3.46 µM | 3.46 µM | 37.2 µM | 1.81 µM | 13.5 µM |  | 1.65 µM | 19.7 µM | 2.22 µM | 19 µM | 1.8 µM | 1.86 µM | 1.85 µM
COC(=O)C(=O)C(C#N)c1ccc(CC#N)cc1 (stereo not drawn) | > 100 µM | > 100 µM | > 100 µM | > 100 µM |  | > 100 µM | > 100 µM | > 100 µM | > 100 µM | > 100 µM |  |  |  |  |  |  |  |  |  | 
COc1c(Cl)c2c(c(OC)c1OC)-c1ccc(SC)c(=O)cc1[C@@H](NC(=O)OCC(F)(F)F)CC2 | > 100 µM | > 100 µM | > 100 µM | > 100 µM |  | > 100 µM | 21.2 µM | 23.8 µM | 4.26 µM | > 100 µM | < 0.01 µM | < 0.01 µM | < 0.01 µM |  | 4.2 µM | < 0.01 µM | < 0.01 µM | < 0.01 µM | < 0.01 µM | < 0.01 µM
CCCn1c(SCC)c2cc3cc4ccccc4cc3cc2c1-c1nc(F)nc(F)n1 | > 100 µM | > 100 µM | > 100 µM | > 100 µM | > 100 µM | > 100 µM |  | > 100 µM | > 100 µM | > 100 µM |  |  |  |  |  |  |  |  |  | 
O=C1c2ccccc2C2(O)NC(=S)N(c3ccccc3)C12O (stereo not drawn) | > 100 µM | > 100 µM | > 100 µM | > 100 µM |  | > 100 µM | > 100 µM | > 100 µM | > 100 µM | > 100 µM |  |  |  |  |  |  |  |  |  | 
Cc1ccc(NC(=O)CCC/C(CC(=O)c2ccc(Br)cc2)=N/NC(=O)CC#N)cc1 | > 100 µM | > 100 µM |  | > 100 µM | > 100 µM | > 100 µM | > 100 µM | > 100 µM | > 100 µM | > 100 µM |  |  |  |  |  |  |  |  |  | 
CC(=O)Nc1c(C)ccc2c1C(=O)c1ccccc1C2=O |  | > 100 µM | > 100 µM | > 100 µM | > 100 µM | > 100 µM | > 100 µM | > 100 µM | > 100 µM | > 100 µM |  |  |  |  |  |  |  |  |  | 
CC1(C)CCC[C@@]2(C)C1CC[C@H]1CC(O)C3(C)CCC12C3 (stereo partly drawn) |  | 50.6 µM | > 100 µM | 37.4 µM | 26.1 µM | 61.2 µM | 29.2 µM | 32.1 µM | 31.3 µM |  |  |  |  |  |  |  |  |  |  | 
COC(=O)C(=O)C(C(=O)C(=O)Nc1ccccc1C(C)=O)c1nc2ccc(C(=O)c3ccccc3)cc2[nH]c1=O (stereo not drawn) | > 100 µM | > 100 µM | > 100 µM | > 100 µM | > 100 µM |  | > 100 µM | > 100 µM | > 100 µM | > 100 µM |  |  |  |  |  |  |  |  |  | 
